Literature values, collected in patent US20240197753A1, “PHARMACEUTICAL COMPOSITION FOR IMPROVING CARDIAC FUNCTION” (OSAKA UNIVERSITY, priority 2021, published 2024).

no-observed-effect level (blood ONO-1301 concentration) (oral dosing phase I study): 15.61 ng/mL
SMILES: O=C(O)COc1cccc2c1CCC=C2CCO/N=C(\c1ccccc1)c1cccnc1 [ONO-1301, ({5-[2-({[(1E)-phenyl(pyridin-3-yl)methylene]amino}oxy)ethyl]-7,8-dihydronaphthalen-1-yl}oxy)acetic acid]
no-observed-adverse-effect level (blood ONO-1301 concentration) (oral dosing phase I study): 23.69 ng/mL
Safety margin (efficacy: platelet aggregation inhibition; side effects: epigastric pain, fever, cold sweat, diarrhea, etc.) (oral, Phase I clinical trials): narrow
